Source: patent US8618082B2, “Lupeol anti-tumor agent and uses thereof” (Wisconsin Alumni Research Foundation, priority 2004, dated 2013)

Tests used:
Fas receptor protein = experiment: Fas receptor expression in LNCaP cells treated with Lupeol plus anti-Fas mAb (western blot); type: cell-based, human; settings: anti-Fas mAb pretreated LNCaP cells treated with Lupeol
Protocol: FIG. 16 depicts cells that were treated with vehicle (DMSO+alcohol) only or specified concentrations of Lupeol alone, anti-Fas mAb or with combination (Lupeol+anti-Fas mAb) for 48 h, harvested and total cell lysates were prepared. The expression of Fas receptor protein in total cell lysate was determined by western blot analysis. Equal loading was confirmed by stripping immunoblots and reprobing them for β-actin. The immunoblots shown here are representative of three independent experiments with similar results.

[1] = system: catalytic (p110) and regulatory (p85) subunit of PI3K; experiment: TPA-induced epidermal PI3K expression (western blot); type: in vivo, mouse
Protocol: FIG. 5. Inhibitory effect of Lupeol on TPA-induced activation of PI3K and phosphorylation of Akt in CD-1 mice: At different times after treatment, the animals were sacrificed, epidermal protein lysate was prepared, and PI3K and phosphorylated (Thr^308) Akt and total Akt protein expression were determined. The immunoblots shown here are representative of three independent experiments with similar results. The values above each lane indicate relative density of the band normalized to β-actin.
The animals were shaved on the dorsal side of the skin, divided into four groups and treated topically on the shaved area with either 0.4 ml vehicle (acetone), or TPA (3.2 nmol/0.4 ml acetone/animal, v/v), or Lupeol (1 or 2 mg/0.2 ml acetone/animal, w/v) followed 30 min later with TPA (3.2 nmol/0.2 ml acetone/animal). Animals were sacrificed at different times point i.e. 6, 12, 24 and 48 h post TPA treatment. The epidermis was separated from the whole skin and homogenized in 0.1 M Tris-HCl buffer (pH 7.2) using a Polytron tissue homogenizer (Brinkmann Instruments, Westbury, N.Y., USA) at 100,000×g supernatant, and microsomal fractions were prepared as described earlier (Katiyar and Mukhtar, 1997). The sample of 6 h treatment group was used to assess the ODC activity as this time point has previously been shown for optimal induction of the enzyme (Katiyar er al., 1996).
Epidermis from the whole skin was separated as described earlier (Katiyar et al., 1999) and was homogenized in ice-cold lysis buffer [50 mM Tris-HCl, 150 mM NaCl, 1 mM EGTA, 1 mM EDTA, 20 mM NaF, 100 mM Na3VO4, 0.5% NP-40, 1% Triton X-100, 1 mM PMSF (pH 7.4)] with freshly added protease inhibitor cocktail, Protease Inhibitor Cocktail Set III (Calbiochem, La Jolla, Calif., USA). The homogenate was then centrifuged at 14,000×g for 25 minutes at 4° C. and the supernatant (total cell lysate) was collected, aliquoted and stored at −80° C. For the preparation of nuclear lysate, 0.2 g of the epidermis was homogenized in 1 ml of ice-cold phosphate-buffered saline (pH 7.6) and centrifuged at 12,000×g for 5 min at 4° C. […] The protein content in the lysates was measured by DC BioRad assay (BioRad Laboratories, Hercules, Calif.) as per the manufacturer's protocol.
(§1) For western blot analysis, 40 μg of the protein was resolved over 8-12% polyacrylamide gels and transferred to a nitrocellulose membrane. […] This was followed by incubation with anti-mouse or anti-rabbit secondary antibody horse-radish peroxidase (Amersham Life Sciences, Inc., USA) for 1 h and then washed several times and detected by chemiluminescence ECL kit, (Amersham Life Sciences, Inc., USA) and autoradiography using XAR-5 film obtained from Eastman Kodak Co. (Rochester, N.Y., USA). […]

[2] = system: normal human prostate epithelial cells (PrEC); experiment: Viability of normal human prostate epithelial cells, MTT assay; type: cell-based; settings: 48 hours
Protocol: FIG. 9 depicts effect of Lupeol on viability of normal human prostate epithelial cells (PrEC). Cells were treated with specified concentrations of Lupeol for 48 h, and cell viability was determined by MTT (3-[4,5-dimethylthiazol-2-yl]-2,5-diphenyl tetrazoliumbromide) assay. The values are represented as the percent viable cells where vehicle-treated cells were regarded as 100% viable. Data represents mean value of percent viable cells±S.E of three independent experiments.

epidermal iNOS protein = experiment: TPA-induced epidermal iNOS protein expression (western blot); type: in vivo, mouse
Protocol: FIG. 4. Inhibitory effect of Lupeol on TPA-induced epidermal ODC, iNOS and COX-2 protein expression in CD-1 mice: At different times after treatment, the animals were sacrificed, epidermal protein lysate was prepared, and ODC and COX-2 protein expression were determined. Equal loading of protein was confirmed by stripping the immunoblot and reprobing it for β-actin. The immunoblots shown here are representative of three independent experiments with similar results. The values above each lane indicate relative density of the band normalized to β-actin.
The animals were shaved on the dorsal side of the skin, divided into four groups and treated topically on the shaved area with either 0.4 ml vehicle (acetone), or TPA (3.2 nmol/0.4 ml acetone/animal, v/v), or Lupeol (1 or 2 mg/0.2 ml acetone/animal, w/v) followed 30 min later with TPA (3.2 nmol/0.2 ml acetone/animal). Animals were sacrificed at different times point i.e. 6, 12, 24 and 48 h post TPA treatment. […]
Epidermis from the whole skin was separated as described earlier (Katiyar et al., 1999) and was homogenized in ice-cold lysis buffer [50 mM Tris-HCl, 150 mM NaCl, 1 mM EGTA, 1 mM EDTA, 20 mM NaF, 100 mM Na3VO4, 0.5% NP-40, 1% Triton X-100, 1 mM PMSF (pH 7.4)] with freshly added protease inhibitor cocktail, Protease Inhibitor Cocktail Set III (Calbiochem, La Jolla, Calif., USA). […] The protein content in the lysates was measured by DC BioRad assay (BioRad Laboratories, Hercules, Calif.) as per the manufacturer's protocol.
as §1

With C=C(C)[C@@H]1CC[C@]2(C)CC[C@]3(C)[C@H](CC[C@@H]4[C@@]5(C)CC[C@H](O)C(C)(C)[C@@H]5CC[C@]43C)[C@@H]12 [Lupeol, Lup-20(29)-en-3β-ol] the Fas protein expression (Fas receptor protein) was “highly increased”, the “expression of p110 and p85” value ([1]; 2 mg Lupeol prior to TPA) was “recovery of the expression of both p110 and p85 almost to their basal levels” and the “TPA-induced increased expression of catalytic and regulatory subunits of PI3K” value ([1]; topical Lupeol 30 min prior to TPA) was “significant inhibition”. For the same compound, the “cell death of normal prostate epithelial cells” value ([2]; 60 μM Lupeol) was 30%, the “cell death of normal prostate epithelial cells” value ([2]; Lupeol up to 50 μM) was “did not exhibit any significant cell death” and the “inhibition against TPA-induced epidermal iNOS protein expression (densitometry)” value (epidermal iNOS protein; Lupeol 2 mg/animal) was 74%. For the same compound, the “epidermal iNOS protein expression after Lupeol alone” value (epidermal iNOS protein; Lupeol alone 2 mg) was “did not produce any change”.
